The text below walks through data of patent US20240199647A1, “ANTI-VIRAL COMPOUNDS” (Aligos Therapeutics, Inc., priority 2022, published 2024).

Read-outs that look alike come from different tables or passages of the source.

The nature of one data set: in vitro. As to conditions: human.
Data set [1] concerns SARS-CoV-2 B.1.1.7 lineage. The experiment in a line: microbe, parasite or virus in culture. Format: cell-based. As to conditions: Severe acute respiratory syndrome coronavirus 2, Table C, SARS-CoV-2 B.1.1.7 in A549-dual_ACE2_TMPRSS2 cells, read-out: A549-dual_ACE2_TMPRSS2 (EC50).
Data set [2] deals with human beta-coronavirus OC43. The experiment in a line: OC43 Coronavirus Assay in HeLa cells (antiviral, cytopathic effect, cell-titer-glo). Format: cell-based. Conditions: Betacoronavirus 1, OC43, HeLa, Table B, OC43 coronavirus in HeLa cells, read-out: EC50.
For the next data set, the target named is SARS-Cov-2 3CLpro (Severe acute respiratory syndrome coronavirus 2, UniProt P0DTD1). Put plainly: biochemical. Conditions: Table A, class symbols, read-out: SARS-Cov-2 (IC50).
The nature of data set [3]: Cytotoxicity in HeLa cells without addition of OC43 virus (in parallel). As to conditions: human, HeLa cells, without OC43 virus.

Usually EC50 stands for the concentration at which the effect is half-maximal. As usually defined, the IC50 is the concentration that gives 50% inhibition. Compound `C[C@H](NC(=O)C(F)(F)F)C(=O)N(C)[C@@H](CC1CC1)C(=O)N1C[C@@]2(C[C@H]1C#N)Oc1cc(F)cc(F)c1NC2=O` [Example 37, (S)—N—((S)-1-((2R,5'S)-5′-cyano-5,7-difluoro-3-oxo-3,4-dihydrospiro[benzo[b][1,4]oxazine-2,3′-pyrrolidin]-1′-yl)-3-cyclopropyl-1-oxopropan-2-yl)-N-methyl-2-(2,2,2-trifluoroacetamido)propanamide] yielded a CC50 in the data set “in vitro” above 1 µM. Further, the half-maximal effective concentration (EC50) was 0.1 to 1 µM in data set [1] (class symbols) and below 0.1 µM in data set [2] (class symbols). Besides, the IC50 at SARS-Cov-2 3CLpro was below 0.02 µM. For the same compound, in data set [3], the CC50 at 6 days is above 10 µM.

As for `CN(C(=O)[C@H](CC1CC1)NC(=O)C(F)(F)F)[C@@H](CC1CC1)C(=O)N1C[C@@]2(C[C@H]1C#N)Oc1cc(F)ccc1NC2=O` [Compound 50], in the data set “in vitro”, the CC50 is above 1 µM. The 50% effective concentration (EC50) in data set [1] (class symbols) and in data set [2] (class symbols) was below 0.1 µM in each case. In addition, the IC50 on SARS-Cov-2 3CLpro was below 0.02 µM. In data set [3], this compound displayed a CC50 at 6 days above 10 µM.

In the data set “in vitro”, `CN(C(=O)CCN1CCOCC1)[C@@H](CC1CC1)C(=O)N1C[C@@]2(C[C@H]1C#N)Oc1cc(F)cc(F)c1NC2=O` [Compound 132] displayed a CC50 above 1 µM. Besides, the results for the half-maximal effective concentration (EC50) in data set [1] (class symbols) and in data set [2] (class symbols) were 0.1 to 1 µM and 1 to 10 µM, respectively. For the same compound, the IC50 at SARS-Cov-2 3CLpro was in the range of 0.02 to 0.2 µM. In data set [3], this compound returned a CC50 at 6 days above 10 µM.

Regarding `CC(C)C[C@@H](C(=O)N1C[C@@]2(C[C@H]1C#N)Oc1ccccc1NC2=O)N(C)C(=O)[C@H](C)NC(=O)C(F)(F)F` [Example 1, (S)—N—((S)-1-((2R,5′S)-5′-cyano-3-oxo-3,4-dihydrospiro[benzo[b][1,4]oxazine-2,3′-pyrrolidin]-1′-yl)-4-methyl-1-oxopentan-2-yl)-N-methyl-2-(2,2,2-trifluoroacetamido)propanamide], in “in vitro”, the CC50 was above 1 µM. Moreover, the EC50 in data set [1] (class symbols) and in data set [2] (class symbols) was below 0.1 µM in each case. Moreover, the IC50 on SARS-Cov-2 3CLpro was below 0.02 µM. This compound also yielded a CC50 at 6 days in data set [3] above 10 µM.

`C[C@H](NC(=O)C(F)(F)F)C(=O)N(C)[C@@H](CC1CC1)C(=O)N1C[C@@]2(C[C@H]1C#N)Oc1cccnc1NC2=O` [Compound 84] came in with a CC50 in “in vitro” above 1 µM. Moreover, the half-maximal effective concentration (EC50) in data set [1] (class symbols) was below 0.1 µM; in data set [2] (class symbols), 1 to 10 µM. The concentration for half-maximal inhibition (IC50) on SARS-Cov-2 3CLpro is below 0.02 µM. This compound also came in with a CC50 at 6 days in data set [3] above 10 µM.

Regarding `CN(C(=O)c1cc2cccnc2[nH]1)[C@@H](CC1CC1)C(=O)N1C[C@@]2(C[C@H]1C#N)Oc1cc(F)cc(F)c1NC2=O` [Compound 137], the CC50 in the data set “in vitro” was above 1 µM. Further, the EC50 lay in the range of 0.1 to 1 µM in data set [1] (class symbols) and 1 to 10 µM in data set [2] (class symbols). Besides, the half-inhibitory concentration (IC50) at SARS-Cov-2 3CLpro lay within 0.02 to 0.2 µM. This compound also gave a CC50 at 6 days in data set [3] above 10 µM.

In “in vitro”, `CC(C)C[C@@H](C(=O)N1C[C@]2(C[C@H]1C#N)C(=O)Nc1cc(Br)nn12)N(C)C(=O)[C@H](C)NC(=O)C(F)(F)F` [Compound 26, (2S)—N-[(2S)-1-[(3R,5'S)-6-bromo-5′-cyano-2-oxo-1H-spiro[pyrazolo[1,5-a]imidazole-3,3′-pyrrolidin]-1′-yl]-4-methyl-1-oxopentan-2-yl]-N-methyl-2-(2,2,2-trifluoroacetamido)propanamide] had a CC50 above 1 µM. Also, the figures for the EC50 in data set [1] (cells given as a bound) and in data set [2] (class symbols) were above 1 µM and 0.1 to 1 µM, respectively. In addition, the IC50 at SARS-Cov-2 3CLpro lay in the range of 0.02 to 0.2 µM. The compound further registered a CC50 at 6 days in data set [3] above 10 µM.

Regarding `CC(C)C[C@@H](C(=O)N1C[C@]2(CC(c3ccccc3)NC2=O)C[C@H]1C#N)N(C)C(=O)[C@H](C)NC(=O)C(F)(F)F` (stereo partly shown) [Compound 24], the CC50 in the data set “in vitro” is above 1 µM. Also, the EC50 in data set [1] (class symbols) is 0.1 to 1 µM; in data set [2] (class symbols), 1 to 10 µM. The IC50 at SARS-Cov-2 3CLpro is below 0.02 µM. This compound had a CC50 at 6 days in data set [3] above 10 µM.

In “in vitro”, `CC(C)C[C@](C)(NC(=O)C(F)(F)F)C(=O)N(C)[C@@H](CC1CC1)C(=O)N1C[C@@]2(C[C@H]1C#N)Oc1cc(F)cc(F)c1NC2=O` [Compound 100] had a CC50 above 1 µM. For the same compound, the EC50 in data set [1] (class symbols) is 0.1 to 1 µM; in data set [2] (class symbols), below 0.1 µM. Also, the concentration for half-maximal inhibition (IC50) on SARS-Cov-2 3CLpro lay within 0.02 to 0.2 µM. The CC50 at 6 days in data set [3] is above 10 µM.

`C[C@H](NC(=O)C(F)(F)F)C(=O)N(C)[C@@H](CC1CC1)C(=O)N1C[C@]2(C[C@H]1C#N)C(=O)NCC2Oc1ccccc1` (stereo partly shown) [Compound 104] yielded a CC50 in the data set “in vitro” above 1 µM. The EC50 was 0.1 to 1 µM in data set [1] (class symbols) and below 0.1 µM in data set [2] (class symbols). Besides, on SARS-Cov-2 3CLpro, the IC50 lay in the range of 0.02 to 0.2 µM. Besides, the CC50 at 6 days in data set [3] was above 10 µM.

Compound `CN(C(=O)c1ncc(-c2ccccc2)[nH]1)[C@@H](CC1CC1)C(=O)N1C[C@@]2(C[C@H]1C#N)Oc1cccnc1NC2=O` [Compound 208] registered a CC50 in “in vitro” above 1 µM. For the same compound, the EC50 in data set [1] (class symbols) and in data set [2] (class symbols) was 0.1 to 1 µM throughout. Besides, the IC50 at SARS-Cov-2 3CLpro was in the range of 0.02 to 0.2 µM. The compound further displayed a CC50 at 6 days in data set [3] above 10 µM.

The compound `CN(C(=O)[C@H](CC1CC1)NC(=O)C(F)(F)F)[C@@H](CC1CC1)C(=O)N1C[C@]2(C[C@H]1C#N)C(=O)Nc1nccn12` [Example 31, (2S)—N-[(2S)-1-[(3R,5'S)-5′-cyano-2-oxo-1H-spiro[[1,3]diazolo[1,2-a]imidazole-3,3′-pyrrolidin]-1′-yl]-3-cyclopropyl-1-oxopropan-2-yl]-3-cyclopropyl-N-methyl-2-(2,2,2-trifluoroacetamido)propanamide] displayed a CC50 in “in vitro” above 1 µM. Moreover, the EC50 was above 1 µM in data set [1] (cells given as a bound) and above 10 µM in data set [2] (cells given as a bound). Besides, the IC50 at SARS-Cov-2 3CLpro is 0.02 to 0.2 µM. This compound showed a CC50 at 6 days in data set [3] above 10 µM.

On to `CC1NC(=O)[C@]2(C[C@@H](C#N)N(C(=O)[C@H](CC3CC3)N(C)C(=O)[C@H](CC3CC3)NC(=O)C(F)(F)F)C2)Oc2ccccc21` (stereo partly drawn) [Compound 222, (2S)—N-((2S)-1-((2R,5'S)-5′-cyano-5-methyl-3-oxo-4,5-dihydro-3H-spiro[benzo[f][1,4]oxazepine-2,3′-pyrrolidin]-1′-yl)-3-cyclopropyl-1-oxopropan-2-yl)-3-cyclopropyl-N-methyl-2-(2,2,2-trifluoroacetamido)propanamide], for which the CC50 in the data set “in vitro” was above 1 µM. Further, the EC50 in data set [1] (class symbols) and in data set [2] (class symbols) was below 0.1 µM each time. Further, the IC50 at SARS-Cov-2 3CLpro is below 0.02 µM. The same compound gave a CC50 at 6 days in data set [3] above 10 µM.

In the data set “in vitro”, `CC(C)C[C@@H](C(=O)N1C[C@@]2(C[C@H]1C#N)N=C(C(C)(C)C)NC2=O)N(C)C(=O)[C@H](C)NC(=O)C(F)(F)F` [Compound 47] gave a CC50 above 1 µM. The EC50 in data set [1] (class symbols) fell in the range of 0.1 to 1 µM; in data set [2] (class symbols), 1 to 10 µM. The IC50 at SARS-Cov-2 3CLpro was 0.02 to 0.2 µM. The compound further displayed a CC50 at 6 days in data set [3] above 10 µM.

`Cc1cnc2c(c1)NC(=O)[C@]1(C[C@@H](C#N)N(C(=O)[C@H](CC3CC3)N(C)C(=O)[C@H](CC3CC3)NC(=O)C(F)(F)F)C1)O2` [Compound 126, (S)—N—((S)-1-((3R,5'S)-5′-cyano-7-methyl-2-oxo-1,2-dihydrospiro[pyrido[2,3-b][1,4]oxazine-3,3′-pyrrolidin]-1′-yl)-3-cyclopropyl-1-oxopropan-2-yl)-3-cyclopropyl-N-methyl-2-(2,2,2-trifluoroacetamido)propanamide]: in “in vitro”, the CC50 is above 1 µM. The EC50 is 0.1 to 1 µM in data set [1] (class symbols) and below 0.1 µM in data set [2] (class symbols). Also, the IC50 on SARS-Cov-2 3CLpro was below 0.02 µM. This compound returned a CC50 at 6 days in data set [3] above 10 µM.

For `C[C@@H](OC(C)(C)C)[C@H](NC(=O)C(F)(F)F)C(=O)N(C)[C@@H](CC1CC1)C(=O)N1C[C@@]2(C[C@H]1C#N)Oc1cc(F)cc(F)c1NC2=O` [Compound 159], in the data set “in vitro”, the CC50 is above 1 µM. Also, the EC50 was below 0.1 µM in data set [1] (class symbols) and 0.1 to 1 µM in data set [2] (class symbols). The half-maximal inhibitory concentration (IC50) on SARS-Cov-2 3CLpro was below 0.02 µM. This compound also displayed a CC50 at 6 days in data set [3] above 10 µM.

On to `COCC[C@H](NC(=O)C(F)(F)F)C(=O)N(C)[C@@H](CC1CC1)C(=O)N1C[C@@]2(C[C@H]1C#N)Oc1cc(F)cc(F)c1NC2=O` [Compound 103], for which the CC50 in “in vitro” is above 1 µM. Also, the EC50 in data set [1] (class symbols) was 0.1 to 1 µM; in data set [2] (class symbols), 1 to 10 µM. In addition, the IC50 at SARS-Cov-2 3CLpro is below 0.02 µM. Further, in data set [3], the CC50 at 6 days was above 10 µM.

`CC(C)C[C@@H](C(=O)N1C[C@]2(CCNC2=O)C[C@H]1C#N)N(C)C(=O)[C@H](C)NC(=O)C(F)(F)F` [Compound 8, (S)—N—((S)-1-((3S,5S)-3-cyano-6-oxo-2,7-diazaspiro[4.4]nonan-2-yl)-4-methyl-1-oxopentan-2-yl)-N-methyl-2-(2,2,2-trifluoroacetamido)propanamide] displayed a CC50 in the data set “in vitro” above 1 µM. Also, the EC50 in data set [1] (class symbols) and in data set [2] (class symbols) was 1 to 10 µM each time. At SARS-Cov-2 3CLpro, the IC50 is 0.02 to 0.2 µM. In data set [3], the CC50 at 6 days is above 10 µM.

For the compound `CN(C(=O)[C@H](CC1CC1)NC(=O)C(F)(F)F)[C@@H](CC1CC1)C(=O)N1C[C@@]2(C[C@H]1C#N)Oc1cccnc1CNC2=O` [Compound 121, (S)—N—((S)-1-((2R,5'S)-5′-cyano-3-oxo-4,5-dihydro-3H-spiro[pyrido[2,3-f][1,4]oxazepine-2,3′-pyrrolidin]-1′-yl)-3-cyclopropyl-1-oxopropan-2-yl)-3-cyclopropyl-N-methyl-2-(2,2,2-trifluoroacetamido)propanamide], the CC50 in the data set “in vitro” is above 1 µM. The EC50 is 0.1 to 1 µM in data set [1] (class symbols) and below 0.1 µM in data set [2] (class symbols). Moreover, on SARS-Cov-2 3CLpro, the IC50 was below 0.02 µM. In data set [3], this compound showed a CC50 at 6 days above 10 µM.

Turning to `CC(C)C[C@@H](C(=O)N1C[C@]2(CCCNC2=O)C[C@H]1C#N)N(C)C(=O)[C@H](C)NC(=O)C(F)(F)F` [Compound 11], the CC50 in “in vitro” was above 1 µM. Besides, the EC50 in data set [1] (class symbols) lay within 0.1 to 1 µM; in data set [2] (class symbols), 1 to 10 µM. Moreover, at SARS-Cov-2 3CLpro, the IC50 lay in the range of 0.02 to 0.2 µM. Also, the CC50 at 6 days in data set [3] is above 10 µM.
